EP4775208A1, “USE OF PRMT5 INHIBITOR IN TREATMENT OF TUMORS OR CANCERS” (Apeiron Therapeutics (Hong Kong) Ltd., priority 2023, dated 2025)
“And” between values parts separate entries of the source, which are not always exact repeats. Equal entries are not always repeated. Where two headings read alike, the source gives them in different places.

Assay: Mouse brain penetration pharmacokinetics study (plasma and brain)
Assay type: in vivo, ICR male mice
Experimental: IV. Mouse Brain Penetration Pharmacokinetics Study
The test compounds used in this study were the compounds described in the specific examples of the present disclosure.
ICR male mice, N=3/group; sourced from Zhejiang Vital River Laboratory Animal Technology Co., Ltd.
3. Drug Preparation and Administration
Single oral (PO) administration to ICR mice: Compounds were dissolved in dimethyl sulfoxide, added to polyethylene glycol 400 and sterile water, and then adjusted to a clear solution with a small amount of 1 mol/L hydrochloric acid. After overnight fasting, the mice were orally gavaged with a dose of 30 mg/kg or 100 mg/kg.
Blood Collection and Processing: Mice were anesthetized with 5% isoflurane for 3-4 minutes until loss of consciousness. Whole blood (500 µL per time point) was collected via cardiac puncture using dipotassium EDTA (K2EDTA) as the anticoagulant. Plasma was separated by centrifugation ([…] for 5 minutes at 4°C). […] The samples were stored at -80°C.
Brain Tissue Collection: Following complete exsanguination, the thoracic cavity was opened with scissors. The right atrium was incised, and a needle was inserted into the left ventricle. Transcardial perfusion was performed with physiological saline (approximately 10 mL). Upon completion of perfusion, the skull was opened, and brain tissues were harvested and stored at -80°C.
Sample Preparation: A 30 µL plasma aliquot (consisting of 10 µL study sample and 20 µL blank plasma) was mixed with 200 µL of ice-cold acetonitrile containing an internal standard (IS). The mixture was vortexed for 30 seconds and then centrifuged at 4,000 g/min for 20 minutes. A 100 µL aliquot of the supernatant was transferred to a 96-well plate and mixed with 200 µL of ultrapure water. After vortexing for 30 seconds, a volume of 5 µL or 10 µL was injected into the LC-MS/MS system for analysis.
Brain Homogenate Preparation: Brain tissue samples were weighed and homogenized in phosphate-buffered saline (PBS) at a 1:4 ratio (tissue weight [g] to PBS volume [mL]). A 30 µL aliquot of brain homogenate (consisting of 10 µL study sample and 20 µL blank brain homogenate) was mixed with 200 µL of ice-cold acetonitrile containing an internal standard. The mixture was vortexed for 30 seconds and centrifuged at 4,000 g/min for 20 minutes. A 100 µL aliquot of the supernatant was transferred to a 96-well plate and mixed with 200 µL of ultrapure water. After vortexing for 30 seconds, a volume of 2 µL or 10 µL was injected into the LC-MS/MS system for analysis. Table 9: PK data

[1] = ICR male mice, PO(30mg/kg), sampling time 4 h, individual animals, 30 mg/kg
[2] = ICR male mice, PO(30mg/kg), sampling time 8 h, individual animals, 30 mg/kg
[3] = ICR male mice, PO(30mg/kg), sampling time 12 h, individual animals, 30 mg/kg
[4] = ICR male mice, PO(30mg/kg), sampling time 24 h, individual animals, 30 mg/kg
[5] = ICR male mice, PO(30mg/kg), sampling time 36 h, individual animals, 30 mg/kg
[6] = ICR male mice, PO(100mg/kg), sampling time 2 h, individual animals, 100 mg/kg
[7] = ICR male mice, PO(100mg/kg), sampling time 4 h, individual animals, 100 mg/kg
[8] = ICR male mice, PO(100mg/kg), sampling time 8 h, individual animals, 100 mg/kg
[9] = ICR male mice, PO(100mg/kg), sampling time 24 h, individual animals, 100 mg/kg

## CN(C(=O)c1ccc2nc(N)c3cncn3c2c1)[C@@H]1COc2cc(C(F)(F)F)ccc21 [Example 107, (S)-4-amino-N-methy 1-N-(6-(trifluoromethy 1)-2,3-dihydrobenzofuran-3-yl)imidazo[1,5-a]quinoxaline-8-carboxamide]
[1]
  B/P ratio: 0.122 and 0.152
  Brain concentration: 885 ng/g and 1290 ng/g and 1780 ng/g
  Plasma concentration: 10600 ng/mL and 11700 ng/mL
[2]
  B/P ratio: 0.227 and 0.305
  Brain concentration: 1700 ng/g and 2080 ng/g
  Plasma concentration: 7500 ng/mL and 6810 ng/mL
[3]
  B/P ratio: 0.435 and 0.320
  Brain concentration: 1040 ng/g and 855 ng/g
  Plasma concentration: 2390 ng/mL and 2670 ng/mL
[4]
  B/P ratio: 0.186 and 0.225
  Brain concentration: 47.6 ng/g and 65.0 ng/g and 142 ng/g
  Plasma concentration: 201 ng/mL and 349 ng/mL and 631 ng/mL
[5]
  B/P ratio: 0.653 and 0.705
  Brain concentration: 25.0 ng/g and 19.1 ng/g
  Plasma concentration: 38.3 ng/mL and 27.1 ng/mL
[6]
  B/P ratio: 0.114 and 0.195
  Brain concentration: 6650 ng/g and 4740 ng/g and 10800 ng/g
  Plasma concentration: 41500 ng/mL and 55400 ng/mL
[7]
  B/P ratio: 0.143 and 0.168
  Brain concentration: 4560 ng/g and 6100 ng/g
  Plasma concentration: 32000 ng/mL and 36400 ng/mL
[8]
  B/P ratio: 0.151 and 0.142
  Brain concentration: 1455 ng/g and 2480 ng/g
  Plasma concentration: 9620 ng/mL and 17500 ng/mL
[9]
  B/P ratio: 0.278 and 0.222
  Brain concentration: 356 ng/g and 434 ng/g
  Plasma concentration: 1280 ng/mL and 1950 ng/mL
male, ICR, mouse, brain and plasma, po, 30 mg/kg, ICR male mice, PO(30mg/kg), sampling time 4 h, individual animals, read-out: B/P ratio
  Kp at 4 h: 0.118
male, ICR, mouse, brain and plasma, po, 30 mg/kg, ICR male mice, PO(30mg/kg), sampling time 8 h, individual animals, read-out: B/P ratio
  Kp at 8 h: 0.286
male, ICR, mouse, brain and plasma, po, 30 mg/kg, ICR male mice, PO(30mg/kg), sampling time 12 h, individual animals, read-out: B/P ratio
  Kp at 12 h: 0.365
male, ICR, mouse, brain and plasma, po, 30 mg/kg, ICR male mice, PO(30mg/kg), sampling time 24 h, individual animals, read-out: B/P ratio
  Kp at 24 h: 0.237
male, ICR, mouse, brain and plasma, po, 30 mg/kg, ICR male mice, PO(30mg/kg), sampling time 36 h, individual animals, read-out: B/P ratio
  Kp at 36 h: 0.605
male, ICR, mouse, brain and plasma, po, 100 mg/kg, ICR male mice, PO(100mg/kg), sampling time 2 h, individual animals, read-out: B/P ratio
  Kp at 2 h: 0.171
male, ICR, mouse, brain and plasma, po, 100 mg/kg, ICR male mice, PO(100mg/kg), sampling time 4 h, individual animals, read-out: B/P ratio
  Kp at 4 h: 0.168
male, ICR, mouse, brain and plasma, po, 100 mg/kg, ICR male mice, PO(100mg/kg), sampling time 8 h, individual animals, read-out: B/P ratio
  Kp at 8 h: 0.2
male, ICR, mouse, brain and plasma, po, 100 mg/kg, ICR male mice, PO(100mg/kg), sampling time 24 h, individual animals, read-out: B/P ratio
  Kp at 24 h: 0.321
male, ICR, mouse, brain, po, 30 mg/kg, ICR male mice, PO(30mg/kg), sampling time 8 h, individual animals, read-out: Brain concentration
  concentration at 8 h: 1820 ng/g
male, ICR, mouse, brain, po, 30 mg/kg, ICR male mice, PO(30mg/kg), sampling time 12 h, individual animals, read-out: Brain concentration
  concentration at 12 h: 1000 ng/g
male, ICR, mouse, brain, po, 30 mg/kg, ICR male mice, PO(30mg/kg), sampling time 36 h, individual animals, read-out: Brain concentration
  concentration at 36 h: 30 ng/g
male, ICR, mouse, brain, po, 100 mg/kg, ICR male mice, PO(100mg/kg), sampling time 4 h, individual animals, read-out: Brain concentration
  concentration at 4 h: 5550 ng/g
male, ICR, mouse, brain, po, 100 mg/kg, ICR male mice, PO(100mg/kg), sampling time 8 h, individual animals, read-out: Brain concentration
  concentration at 8 h: 2460 ng/g
male, ICR, mouse, brain, po, 100 mg/kg, ICR male mice, PO(100mg/kg), sampling time 24 h, individual animals, read-out: Brain concentration
  concentration at 24 h: 427 ng/g
male, ICR, mouse, plasma, po, 30 mg/kg, ICR male mice, PO(30mg/kg), sampling time 4 h, individual animals, read-out: Plasma concentration
  concentration at 4 h: 7520 ng/mL
male, ICR, mouse, plasma, po, 30 mg/kg, ICR male mice, PO(30mg/kg), sampling time 8 h, individual animals, read-out: Plasma concentration
  concentration at 8 h: 6370 ng/mL
male, ICR, mouse, plasma, po, 30 mg/kg, ICR male mice, PO(30mg/kg), sampling time 12 h, individual animals, read-out: Plasma concentration
  concentration at 12 h: 2750 ng/mL
male, ICR, mouse, plasma, po, 30 mg/kg, ICR male mice, PO(30mg/kg), sampling time 36 h, individual animals, read-out: Plasma concentration
  concentration at 36 h: 49.6 ng/mL
male, ICR, mouse, plasma, po, 100 mg/kg, ICR male mice, PO(100mg/kg), sampling time 2 h, individual animals
  concentration at 2 h: 38800 ng/mL
male, ICR, mouse, plasma, po, 100 mg/kg, ICR male mice, PO(100mg/kg), sampling time 4 h, individual animals, read-out: Plasma concentration
  concentration at 4 h: 33100 ng/mL
male, ICR, mouse, plasma, po, 100 mg/kg, ICR male mice, PO(100mg/kg), sampling time 8 h, individual animals, read-out: Plasma concentration
  concentration at 8 h: 12300 ng/mL
male, ICR, mouse, plasma, po, 100 mg/kg, ICR male mice, PO(100mg/kg), sampling time 24 h, individual animals, read-out: Plasma concentration
  concentration at 24 h: 1330 ng/mL
Rodents (ICR mice), oral 30 mg/kg or 100 mg/kg, result in words
  brain penetration: favorable brain penetration
